From ChEMBL document CHEMBL3797190, “Development of 3,5-Dinitrobenzylsulfanyl-1,3,4-oxadiazoles and Thiadiazoles as Selective Antitubercular Agents Active Against Replicating and Nonreplicating Mycobacterium tuberculosis” (J Med Chem, 2016)
≈ marks a conversion by molar mass, not a printed value.

Key:
Assay type in all cases: functional
[1] = test system: Mycobacterium tuberculosis; test: Antimycobacterial activity against Mycobacterium tuberculosis CNCTC My 331/88 after 14 days by microdilution method; details: CNCTC My 331/88, 336 h
[2] = test system: Mycobacterium tuberculosis; test: Antimycobacterial activity against Mycobacterium tuberculosis CNCTC My 331/88 after 21 days by microdilution method; details: CNCTC My 331/88, 504 h
Mycobacterium kansasii [3] = test: Antimycobacterial activity against Mycobacterium kansasii CNCTC My 235/80 after 21 days by microdilution method; details: CNCTC My 235/80, 504 h
Mycobacterium kansasii [4] = test: Antimycobacterial activity against Mycobacterium kansasii CNCTC My 6509/96 after 21 days by microdilution method; details: CNCTC My 6509/96, 504 h
Mycobacterium avium [5] = test: Antimycobacterial activity against Mycobacterium avium CNCTC My 330/88 after 14 days by microdilution method; details: CNCTC My 330/88, 336 h
Mycobacterium kansasii [6] = test: Antimycobacterial activity against Mycobacterium kansasii CNCTC My 6509/96 after 14 days by microdilution method; details: CNCTC My 6509/96, 336 h
Mycobacterium avium [7] = test: Antimycobacterial activity against Mycobacterium avium CNCTC My 330/88 after 21 days by microdilution method; details: CNCTC My 330/88, 504 h
Mycobacterium kansasii [8] = test: Antimycobacterial activity against Mycobacterium kansasii CNCTC My 235/80 after 14 days by microdilution method; details: CNCTC My 235/80, 336 h
Mycobacterium kansasii [9] = test: Antimycobacterial activity against Mycobacterium kansasii CNCTC My 6509/96 after 7 days by microdilution method; details: CNCTC My 6509/96, 168 h
Mycobacterium kansasii [10] = test: Antimycobacterial activity against Mycobacterium kansasii CNCTC My 235/80 after 7 days by microdilution method; details: CNCTC My 235/80, 168 h

SMILES | MIC99 [1] [µM] | MIC99 [2] [µM] | MIC99 (Mycobacterium kansasii [3]) [µM] | MIC99 (Mycobacterium kansasii [4]) [µM] | MIC99 (Mycobacterium avium [5]) [µM] | MIC99 (Mycobacterium kansasii [6]) [µM] | MIC99 (Mycobacterium avium [7]) [µM] | MIC99 (Mycobacterium kansasii [8]) [µM] | MIC99 (Mycobacterium kansasii [9]) [µM] | MIC99 (Mycobacterium kansasii [10]) [µM]
O=[N+]([O-])c1cc(CSc2nnc(C3CCCCC3)o2)cc([N+](=O)[O-])c1 | ≤ 0.03 | ≤ 0.03 |  |  |  |  |  |  |  | 
NNC(=O)c1ccncc1 [ISONIAZID] |  |  | > 250 | 4 (≈ 0.549 µg/mL) | > 250 | 4 (≈ 0.549 µg/mL) | > 250 | > 250 | 4 (≈ 0.549 µg/mL) | > 250
O=[N+]([O-])c1cc(CSc2nnc(-c3ccccc3Cl)s2)cc([N+](=O)[O-])c1 | 0.125 (≈ 0.0511 µg/mL) | 0.125 (≈ 0.0511 µg/mL) | 1 (≈ 0.409 µg/mL) | 1 (≈ 0.409 µg/mL) | 16 (≈ 6.54 µg/mL) | 1 (≈ 0.409 µg/mL) | > 16 | 1 (≈ 0.409 µg/mL) | 0.5 (≈ 0.204 µg/mL) | 0.5 (≈ 0.204 µg/mL)
Cc1ccc(-c2nnc(SCc3cc([N+](=O)[O-])cc([N+](=O)[O-])c3)s2)cc1 | 0.125 (≈ 0.0486 µg/mL) | 0.125 (≈ 0.0486 µg/mL) | 1 (≈ 0.388 µg/mL) | 2 (≈ 0.777 µg/mL) | > 125 | 1 (≈ 0.388 µg/mL) | > 125 | 0.5 (≈ 0.194 µg/mL) | 0.5 (≈ 0.194 µg/mL) | 0.5 (≈ 0.194 µg/mL)
COc1cc(OC)cc(-c2nnc(SCc3cc([N+](=O)[O-])cc([N+](=O)[O-])c3)o2)c1 | 0.125 (≈ 0.0523 µg/mL) | 0.125 (≈ 0.0523 µg/mL) | 0.5 (≈ 0.209 µg/mL) | 1 (≈ 0.418 µg/mL) | 16 (≈ 6.69 µg/mL) | 0.5 (≈ 0.209 µg/mL) | 16 (≈ 6.69 µg/mL) | 0.25 (≈ 0.105 µg/mL) | 0.125 (≈ 0.0523 µg/mL) | 0.125 (≈ 0.0523 µg/mL)
Nc1cc(CSc2nnc(-c3ccc([N+](=O)[O-])cc3)s2)cc([N+](=O)[O-])c1 | 125 (≈ 48.7 µg/mL) | 125 (≈ 48.7 µg/mL) | 250 (≈ 97.4 µg/mL) | 250 (≈ 97.4 µg/mL) | 250 (≈ 97.4 µg/mL) | 250 (≈ 97.4 µg/mL) | 250 (≈ 97.4 µg/mL) | 250 (≈ 97.4 µg/mL) | 250 (≈ 97.4 µg/mL) | 250 (≈ 97.4 µg/mL)
O=[N+]([O-])c1cc(CSc2nnc(-c3ccc(Cl)cc3)o2)cc(C(F)(F)F)c1 | > 32 | > 32 | > 32 | > 32 | > 500 | > 32 | > 500 | > 32 | > 32 | > 32
O=[N+]([O-])c1cc(CSc2nnc(-c3ccncc3)o2)cc([N+](=O)[O-])c1 | 0.5 (≈ 0.18 µg/mL) | 0.5 (≈ 0.18 µg/mL) | 2 (≈ 0.719 µg/mL) | 4 (≈ 1.44 µg/mL) | 62 (≈ 22.3 µg/mL) | 2 (≈ 0.719 µg/mL) | 62 (≈ 22.3 µg/mL) | 2 (≈ 0.719 µg/mL) | 2 (≈ 0.719 µg/mL) | 1 (≈ 0.359 µg/mL)
O=[N+]([O-])c1ccc(CSc2nnc(-c3ccccc3)s2)c([N+](=O)[O-])c1 | 8 (≈ 3 µg/mL) | 16 (≈ 5.99 µg/mL) | 4 (≈ 1.5 µg/mL) | 4 (≈ 1.5 µg/mL) | 8 (≈ 3 µg/mL) | 2 (≈ 0.749 µg/mL) | 32 (≈ 12 µg/mL) | 4 (≈ 1.5 µg/mL) | 1 (≈ 0.374 µg/mL) | 1 (≈ 0.374 µg/mL)
O=[N+]([O-])c1ccc(CSc2nnc(-c3ccc([N+](=O)[O-])cc3)o2)cc1 | 250 (≈ 89.6 µg/mL) | 250 (≈ 89.6 µg/mL) | 250 (≈ 89.6 µg/mL) | 62 (≈ 22.2 µg/mL) | 250 (≈ 89.6 µg/mL) | 62 (≈ 22.2 µg/mL) | 250 (≈ 89.6 µg/mL) | 250 (≈ 89.6 µg/mL) | 62 (≈ 22.2 µg/mL) | 250 (≈ 89.6 µg/mL)
O=[N+]([O-])c1cc(CSc2nnc(-c3ccccc3Cl)o2)cc([N+](=O)[O-])c1 | 0.125 (≈ 0.0491 µg/mL) | 0.125 (≈ 0.0491 µg/mL) | 0.5 (≈ 0.196 µg/mL) | 1 (≈ 0.393 µg/mL) | 16 (≈ 6.28 µg/mL) | 0.5 (≈ 0.196 µg/mL) | 32 (≈ 12.6 µg/mL) | 0.25 (≈ 0.0982 µg/mL) | 0.125 (≈ 0.0491 µg/mL) | 0.125 (≈ 0.0491 µg/mL)
Cc1cc(C)cc(-c2nnc(SCc3cc([N+](=O)[O-])cc([N+](=O)[O-])c3)s2)c1 | 0.125 (≈ 0.0503 µg/mL) | 0.125 (≈ 0.0503 µg/mL) | 1 (≈ 0.402 µg/mL) | 0.5 (≈ 0.201 µg/mL) | > 16 | 0.5 (≈ 0.201 µg/mL) | > 16 | 1 (≈ 0.402 µg/mL) | 0.25 (≈ 0.101 µg/mL) | 0.25 (≈ 0.101 µg/mL)
O=[N+]([O-])c1ccc(CSc2nnc(-c3ccc([N+](=O)[O-])cc3)s2)cc1 | 62 (≈ 23.2 µg/mL) | 62 (≈ 23.2 µg/mL) | 250 (≈ 93.6 µg/mL) | 62 (≈ 23.2 µg/mL) | 250 (≈ 93.6 µg/mL) | 62 (≈ 23.2 µg/mL) | 250 (≈ 93.6 µg/mL) | 250 (≈ 93.6 µg/mL) | 62 (≈ 23.2 µg/mL) | 250 (≈ 93.6 µg/mL)
Cc1ccc(-c2nnc(SCc3cc([N+](=O)[O-])cc(C(F)(F)F)c3)s2)cc1 | > 32 | > 32 | > 32 | > 32 | > 500 | > 32 | > 500 | > 32 | > 32 | > 32
Cc1cc(C)cc(-c2nnc(SCc3cc([N+](=O)[O-])cc([N+](=O)[O-])c3)o2)c1 | 0.06 (≈ 0.0232 µg/mL) | 0.06 (≈ 0.0232 µg/mL) | 1 (≈ 0.386 µg/mL) | 2 (≈ 0.773 µg/mL) | > 32 | 1 (≈ 0.386 µg/mL) | > 32 | 0.5 (≈ 0.193 µg/mL) | 0.5 (≈ 0.193 µg/mL) | 0.25 (≈ 0.0966 µg/mL)
O=[N+]([O-])c1cc(CSc2nnc(-c3ccc(O)cc3)o2)cc([N+](=O)[O-])c1 | 1 (≈ 0.374 µg/mL) | 1 (≈ 0.374 µg/mL) | 16 (≈ 5.99 µg/mL) | 16 (≈ 5.99 µg/mL) | 62 (≈ 23.2 µg/mL) | 8 (≈ 2.99 µg/mL) | 62 (≈ 23.2 µg/mL) | 8 (≈ 2.99 µg/mL) | 4 (≈ 1.5 µg/mL) | 4 (≈ 1.5 µg/mL)
